ChEMBL document CHEMBL1201862, “PubChem BioAssay data set” (2004)
Activity calls are given as the source filed them.

Experiments:
[1] = target: Peroxisome proliferator-activated receptor gamma/Nuclear receptor coactivator 3 (Homo sapiens, UniProt P37231); assay type: functional;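 note: agonist potency for raising coactivator recruitment to the receptor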
[2] = target: Peroxisome proliferator-activated receptor gamma/Nuclear receptor coactivator 1 (Homo sapiens, UniProt P37231); assay type: functional;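 note: agonist potency as compounds enhance coactivator SRC-1 recruitment to PPARgamma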
[3] = target: Ubiquitin carboxyl-terminal hydrolase BAP1 (Homo sapiens, UniProt Q92560); assay: inhibition of BAP1 ubiquitin hydrolase activity – biochemical, dose response (AID 714); assay type: functional
Chain of Ubiquitin carboxyl-terminal hydrolase BAP1 (Q92560 whole entry): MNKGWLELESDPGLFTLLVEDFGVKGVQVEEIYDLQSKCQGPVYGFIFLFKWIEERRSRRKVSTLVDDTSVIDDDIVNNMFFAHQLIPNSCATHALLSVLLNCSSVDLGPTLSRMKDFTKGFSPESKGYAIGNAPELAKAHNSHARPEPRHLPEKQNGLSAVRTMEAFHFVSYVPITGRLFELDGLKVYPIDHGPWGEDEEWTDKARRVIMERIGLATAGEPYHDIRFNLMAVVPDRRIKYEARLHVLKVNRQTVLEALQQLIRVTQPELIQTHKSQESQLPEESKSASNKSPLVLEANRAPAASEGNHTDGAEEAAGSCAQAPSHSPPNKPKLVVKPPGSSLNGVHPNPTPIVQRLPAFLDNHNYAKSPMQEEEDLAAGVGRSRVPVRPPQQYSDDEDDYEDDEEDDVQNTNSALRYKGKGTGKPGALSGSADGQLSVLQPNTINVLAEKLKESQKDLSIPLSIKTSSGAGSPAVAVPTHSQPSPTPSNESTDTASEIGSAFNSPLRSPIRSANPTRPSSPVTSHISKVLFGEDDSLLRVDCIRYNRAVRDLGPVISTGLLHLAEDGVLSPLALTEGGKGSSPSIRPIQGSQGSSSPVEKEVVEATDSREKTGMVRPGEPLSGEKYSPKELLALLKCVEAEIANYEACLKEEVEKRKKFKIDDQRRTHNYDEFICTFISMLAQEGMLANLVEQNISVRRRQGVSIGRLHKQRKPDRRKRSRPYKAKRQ

[4] = target: Peroxisome proliferator-activated receptor gamma/Nuclear receptor coactivator 2 (Homo sapiens, UniProt P37231); assay type: functional;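 note: agonist potency for raising coactivator recruitment to the receptor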
[5] = HIV-1 Vif–A3G interaction blockers – biochemical, TR-FRET, GST-Vif 1-94, biotin-A3G peptide, dose response retest, primary screen (AID 1117319); assay type: functional;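 note: TR-FRET signal of purified GST-Vif binding a biotinylated A3G peptide; inhibitors lower the FRET signal by blocking Vif and A3G binding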
[6] = target: Estrogen receptor (Homo sapiens, UniProt P03372);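 note: potency for inhibiting coactivator peptide recruitment to the receptor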
[7] = target: Induced myeloid leukemia cell differentiation protein Mcl-1 (Homo sapiens, UniProt Q07820); assay type: functional
Chain of Induced myeloid leukemia cell differentiation protein Mcl-1 (Q07820 whole entry): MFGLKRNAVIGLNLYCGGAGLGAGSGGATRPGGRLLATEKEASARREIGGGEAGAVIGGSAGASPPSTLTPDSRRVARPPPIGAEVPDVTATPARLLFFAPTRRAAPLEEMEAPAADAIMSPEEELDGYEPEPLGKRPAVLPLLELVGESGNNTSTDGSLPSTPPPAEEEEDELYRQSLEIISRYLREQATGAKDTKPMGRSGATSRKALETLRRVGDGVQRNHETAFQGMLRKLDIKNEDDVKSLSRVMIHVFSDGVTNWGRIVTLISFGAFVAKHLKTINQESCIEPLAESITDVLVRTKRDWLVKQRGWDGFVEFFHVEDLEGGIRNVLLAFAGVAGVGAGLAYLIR

[8] = target: Protein Tat (Human immunodeficiency virus type 1 group M subtype B (isolate HXB2)(HIV-1), UniProt P04608); assay type: functional;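 note: tat binding to TAR RNA read out by fluorescence polarization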
[9] = target: Glutathione-S-transferase (Schistosoma japonicum, UniProt Q26513); assay: GST-antibody interaction or FRET quenching – biochemical, TR-FRET, artefact control for Vif-APOBEC3G degradation inhibitor project, dose response (AID 1117362); assay type: functional
Chain of Glutathione-S-transferase (Q26513 whole entry): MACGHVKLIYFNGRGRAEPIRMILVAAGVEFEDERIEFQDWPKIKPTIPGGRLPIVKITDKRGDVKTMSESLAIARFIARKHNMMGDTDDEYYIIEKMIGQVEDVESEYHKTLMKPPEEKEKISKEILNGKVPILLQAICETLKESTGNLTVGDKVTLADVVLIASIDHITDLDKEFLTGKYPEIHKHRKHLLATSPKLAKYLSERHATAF

[10] = target: Oxytocin receptor (Homo sapiens, UniProt P30559); assay: Fluorescence-based cell-based high throughput dose response assay for agonists of the Oxytocin Receptor (OXTR). [Related pubchem assays: 2435 (Primary screen (OXTR agonists in singlicate)), 434991 (Counterscreen (V1R agonists in triplicate)), 2482 (Summary (OXTR agonists)), 434963 (Confirmation screen (OXTR agonists in triplicate))]; assay type: functional
Chain of Oxytocin receptor (P30559 whole entry): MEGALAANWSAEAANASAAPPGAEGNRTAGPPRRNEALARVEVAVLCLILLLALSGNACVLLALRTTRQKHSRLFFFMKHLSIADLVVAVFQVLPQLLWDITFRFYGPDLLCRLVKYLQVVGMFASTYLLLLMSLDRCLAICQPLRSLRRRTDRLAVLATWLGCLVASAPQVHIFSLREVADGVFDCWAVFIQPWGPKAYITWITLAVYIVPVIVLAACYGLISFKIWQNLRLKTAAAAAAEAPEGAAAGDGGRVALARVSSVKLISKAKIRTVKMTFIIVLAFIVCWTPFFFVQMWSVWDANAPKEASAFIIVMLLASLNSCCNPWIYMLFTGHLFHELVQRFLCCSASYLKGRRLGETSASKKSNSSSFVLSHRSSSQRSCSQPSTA

[11] = target: Vasopressin V1a receptor (Homo sapiens, UniProt P37288); assay: Counterscreen for Oxytocin Receptor (OXTR) agonists: Fluorescence-based cell-based high throughput dose response assay to identify agonists of the vasopressin 1 receptor (V1R). [Related pubchem assays: 2435 (Primary screen (OXTR agonists in singlicate)), 434991 (Counterscreen (V1R agonists in triplicate)), 2482 (Summary (OXTR agonists)) …; assay type: functional
Chain of Vasopressin V1a receptor (P37288 whole entry): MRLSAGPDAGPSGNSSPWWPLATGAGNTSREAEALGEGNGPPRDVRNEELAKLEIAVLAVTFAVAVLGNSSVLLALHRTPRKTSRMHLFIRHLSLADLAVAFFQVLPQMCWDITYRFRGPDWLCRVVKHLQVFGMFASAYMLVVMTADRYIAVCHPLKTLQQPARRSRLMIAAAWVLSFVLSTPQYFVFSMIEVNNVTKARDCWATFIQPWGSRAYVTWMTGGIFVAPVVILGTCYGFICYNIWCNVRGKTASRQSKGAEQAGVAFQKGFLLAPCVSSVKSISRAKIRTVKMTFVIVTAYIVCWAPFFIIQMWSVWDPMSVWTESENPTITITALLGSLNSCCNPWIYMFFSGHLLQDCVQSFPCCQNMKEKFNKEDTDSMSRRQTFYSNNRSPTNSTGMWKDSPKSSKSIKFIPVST

[12] = cells; assay type: functional
[13] = THP-1 cell cytotoxicity, dose response, cytotoxicity control for non-replicating M. tuberculosis project (AID 489025); assay type: functional
[14] = target: T1, Streptokinase A (Streptococcus pyogenes serotype M1, UniProt P10520); assay: viability-normalized secreted streptokinase activity reduction – plasminogen activation absorbance, OD405, dose response (AID 1914); assay type: functional, Streptococcus pyogenes M1 GAS;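 note: secreted streptokinase activity via plasminogen activation per viability signal from cell pellet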
T1 sequence (P10520 whole entry): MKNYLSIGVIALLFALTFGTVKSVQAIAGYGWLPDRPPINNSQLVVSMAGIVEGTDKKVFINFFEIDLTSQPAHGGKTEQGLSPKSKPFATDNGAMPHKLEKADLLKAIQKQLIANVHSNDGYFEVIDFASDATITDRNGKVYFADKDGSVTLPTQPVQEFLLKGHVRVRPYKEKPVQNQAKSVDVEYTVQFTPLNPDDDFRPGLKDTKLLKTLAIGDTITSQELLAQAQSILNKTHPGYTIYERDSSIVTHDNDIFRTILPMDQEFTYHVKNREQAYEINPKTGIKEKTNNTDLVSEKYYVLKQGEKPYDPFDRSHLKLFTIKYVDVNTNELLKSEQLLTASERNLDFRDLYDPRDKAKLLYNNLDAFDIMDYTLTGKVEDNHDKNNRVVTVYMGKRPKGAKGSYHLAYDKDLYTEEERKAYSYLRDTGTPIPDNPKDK

[15] = tested on: INS1; assay: INS-1E survival protection against cytokine death – cell-based, luminescence, retest, dose response (AID 449756); assay type: functional; settings: Rattus norvegicus;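 note: cell death triggered by IL-1 beta plus TNF-alpha plus IFN-gamma mixture; protective hits raise ATP signal compared with cytokine alone wells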
[16] = Vero E6 cell cytotoxicity, dose response, cytotoxicity control for non-replicating M. tuberculosis project, secondary assay (AID 492998); assay type: functional, VeroE6; settings: Vero C1008
[17] = tested on: Streptococcus sp. 'group A'; assay: Streptococcus pyogenes SK(-)GAS viability under kanamycin – luminescence, BacTiterGlo, confirmation, counter-screen for streptokinase expression inhibitor project, dose response (AID 1900); assay type: functional, organism-based
[18] = HepG2 cell cytotoxicity, dose response, cytotoxicity control for non-replicating M. tuberculosis project (AID 489018); assay type: functional; settings: Mycobacterium tuberculosis
[19] = cells; assay type: functional, cell-based
[20] = cells; assay type: functional, cell-based; remark: listed apart in the source
[21] = Luminescence-based counterscreen assay for KLF5 inhibitors: dose response cell-based high throughput screening assay to identify cytotoxic compounds using the IEC-6 intestinal epithelial cell line. [Related pubchem assays: 1700 (Primary screen.), 1834 (Confirmation screen.), 1858 (Summary AID.), 1905 (Counterscreen.)]; assay type: functional
[22] = tested on: Streptococcus; assay: GAS UMAA2166 growth inhibition – luminescence, BacTiterGlo, counter-screen for streptokinase expression inhibitor project, dose response (AID 1915); assay type: functional, organism-based;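 note: potency for reduction of bacterial viability or growth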
[23] = target: NADPH oxidase 1 (Homo sapiens, UniProt Q9Y5S8); assay: Late-stage luminescence-based cell-based dose response assay to identify inhibitors of NADPH oxidase 1 (NOX1): Purchased analogs 2.; assay type: functional
Chain of NADPH oxidase 1 (Q9Y5S8 whole entry): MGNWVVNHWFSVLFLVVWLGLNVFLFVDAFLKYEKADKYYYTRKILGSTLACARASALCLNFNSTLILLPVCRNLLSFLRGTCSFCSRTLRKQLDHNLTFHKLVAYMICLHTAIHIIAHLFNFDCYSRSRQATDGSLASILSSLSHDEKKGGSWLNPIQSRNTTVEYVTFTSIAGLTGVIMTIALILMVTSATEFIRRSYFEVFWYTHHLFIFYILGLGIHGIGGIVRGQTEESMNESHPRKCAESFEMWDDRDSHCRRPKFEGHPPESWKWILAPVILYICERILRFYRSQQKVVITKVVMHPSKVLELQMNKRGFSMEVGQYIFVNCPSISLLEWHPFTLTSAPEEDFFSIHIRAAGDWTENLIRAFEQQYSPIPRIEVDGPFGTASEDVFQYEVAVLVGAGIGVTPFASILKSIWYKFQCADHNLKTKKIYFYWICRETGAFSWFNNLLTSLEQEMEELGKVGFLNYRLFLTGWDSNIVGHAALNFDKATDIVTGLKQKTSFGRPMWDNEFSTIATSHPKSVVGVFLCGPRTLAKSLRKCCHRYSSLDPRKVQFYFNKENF

[24] = target: Protein-tyrosine kinase 2-beta (Homo sapiens, UniProt Q14289);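 note: potency of inhibitors of PYK2 kinase phosphorylation of poly-GT substrate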
[25] = target: Bifunctional protein GlmU (Mycobacterium tuberculosis, UniProt P9WMN3); assay: Inhibitors of Mycobacterial Glucosamine-1-phosphate acetyl transferase (GlmU). Secondary screen.; design: species or system Mycobacterium tuberculosis H37Rv
[26] = target: Galanin receptor type 2 (Homo sapiens, UniProt O43603); assay: Dose Response cell-based high-throughput screening assay to identify antagonists of galanin receptor 2 (GALR2). [Related pubchem assays: 828, 866 ]; assay type: functional
[27] = target: T2, Estrogen receptor beta (Homo sapiens, UniProt Q92731);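 note: recombinant ER-beta bound to coactivator SRC1 peptide in presence of estradiol agonist; inhibitors block coactivator peptide binding and lower the FRET signal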
T2 sequence (Q92731 whole entry): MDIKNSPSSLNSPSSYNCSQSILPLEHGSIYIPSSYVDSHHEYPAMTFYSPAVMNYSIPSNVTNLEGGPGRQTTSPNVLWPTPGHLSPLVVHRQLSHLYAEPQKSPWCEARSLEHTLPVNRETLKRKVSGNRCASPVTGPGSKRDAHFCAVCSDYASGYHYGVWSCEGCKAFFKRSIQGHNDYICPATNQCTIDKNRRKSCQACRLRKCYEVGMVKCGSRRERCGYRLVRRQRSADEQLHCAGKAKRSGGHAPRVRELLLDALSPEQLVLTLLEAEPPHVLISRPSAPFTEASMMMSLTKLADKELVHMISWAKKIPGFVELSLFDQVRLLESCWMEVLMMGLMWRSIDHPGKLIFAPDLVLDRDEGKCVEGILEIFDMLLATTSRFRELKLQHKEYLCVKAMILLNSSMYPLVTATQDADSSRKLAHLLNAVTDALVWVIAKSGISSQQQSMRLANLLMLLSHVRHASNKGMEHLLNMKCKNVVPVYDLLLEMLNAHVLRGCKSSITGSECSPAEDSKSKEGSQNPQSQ

[28] = target: T2, Estrogen receptor beta; assay: blockers of SRC-3 recruitment to ERβ – biochemical, ELISA, streptavidin-HRP readout, orthogonal assay, confirmation (AID 1060)
[29] = target: T3, D(2) dopamine receptor (Homo sapiens, UniProt P14416); assay: Counterscreening of D4 Antagonists against Dopamine 2S (Human), Confirmatory Assay.; assay type: functional
T3 sequence (P14416 whole entry): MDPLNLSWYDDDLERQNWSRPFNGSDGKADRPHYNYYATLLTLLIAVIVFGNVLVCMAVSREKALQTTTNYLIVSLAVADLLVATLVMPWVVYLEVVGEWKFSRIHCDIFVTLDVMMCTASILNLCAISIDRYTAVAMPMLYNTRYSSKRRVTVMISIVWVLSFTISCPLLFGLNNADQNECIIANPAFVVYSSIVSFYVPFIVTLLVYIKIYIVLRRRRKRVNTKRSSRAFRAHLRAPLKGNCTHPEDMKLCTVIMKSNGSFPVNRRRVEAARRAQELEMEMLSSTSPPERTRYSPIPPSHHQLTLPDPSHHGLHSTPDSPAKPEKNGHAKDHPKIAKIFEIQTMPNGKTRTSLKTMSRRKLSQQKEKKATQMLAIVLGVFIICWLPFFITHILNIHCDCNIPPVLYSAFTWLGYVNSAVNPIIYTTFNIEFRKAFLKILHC

[30] = target: D(1B) dopamine receptor (Homo sapiens, UniProt P21918); assay: Counterscreening of D4 Antagonists against Dopamine 5 DRD5 (Human), Confirmatory Assay.; assay type: functional
Chain of D(1B) dopamine receptor (P21918 whole entry, canonical isoform): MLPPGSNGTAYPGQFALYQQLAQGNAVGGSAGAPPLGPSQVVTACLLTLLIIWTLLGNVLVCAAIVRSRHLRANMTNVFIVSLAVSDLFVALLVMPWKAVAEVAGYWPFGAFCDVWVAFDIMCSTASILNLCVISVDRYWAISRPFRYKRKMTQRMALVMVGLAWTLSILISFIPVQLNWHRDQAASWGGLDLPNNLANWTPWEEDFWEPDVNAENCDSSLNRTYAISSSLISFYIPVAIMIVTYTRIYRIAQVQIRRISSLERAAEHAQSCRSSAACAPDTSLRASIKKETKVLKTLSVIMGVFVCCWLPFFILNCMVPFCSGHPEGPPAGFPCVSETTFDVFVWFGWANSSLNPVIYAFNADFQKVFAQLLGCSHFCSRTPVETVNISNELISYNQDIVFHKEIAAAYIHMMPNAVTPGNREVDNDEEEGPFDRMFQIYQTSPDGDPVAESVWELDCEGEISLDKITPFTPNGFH

[31] = target: T3, D(2) dopamine receptor; assay: human DRD2 long isoform antagonists – cell-based, D2L isoform, counter-screen for D4 antagonist project, confirmation (AID 743377); assay type: functional
[32] = target: D(1A) dopamine receptor (Homo sapiens, UniProt P21728); assay: Counterscreening of D4 Antagonists against Dopamine 1 (Human), Confirmatory Assay.; assay type: functional
Chain of D(1A) dopamine receptor (P21728 whole entry): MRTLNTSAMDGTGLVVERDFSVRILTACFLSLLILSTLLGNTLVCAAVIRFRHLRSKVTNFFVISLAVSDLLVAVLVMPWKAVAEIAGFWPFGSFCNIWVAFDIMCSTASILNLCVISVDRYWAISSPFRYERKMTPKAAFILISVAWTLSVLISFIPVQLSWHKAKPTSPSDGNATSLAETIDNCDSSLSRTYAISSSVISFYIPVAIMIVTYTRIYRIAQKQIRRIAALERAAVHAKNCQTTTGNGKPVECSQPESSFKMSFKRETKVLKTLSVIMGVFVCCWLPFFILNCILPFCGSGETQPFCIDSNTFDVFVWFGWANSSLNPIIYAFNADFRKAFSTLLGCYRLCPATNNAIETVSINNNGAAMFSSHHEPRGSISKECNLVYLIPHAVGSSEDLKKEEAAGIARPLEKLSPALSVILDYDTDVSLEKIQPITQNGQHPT

[33] = target: D(3) dopamine receptor (Homo sapiens, UniProt P35462); assay: Counterscreening of D4 Antagonists against Dopamine 3 DRD3 (Human), Confirmatory Assay.; assay type: functional
Chain of D(3) dopamine receptor (P35462 whole entry): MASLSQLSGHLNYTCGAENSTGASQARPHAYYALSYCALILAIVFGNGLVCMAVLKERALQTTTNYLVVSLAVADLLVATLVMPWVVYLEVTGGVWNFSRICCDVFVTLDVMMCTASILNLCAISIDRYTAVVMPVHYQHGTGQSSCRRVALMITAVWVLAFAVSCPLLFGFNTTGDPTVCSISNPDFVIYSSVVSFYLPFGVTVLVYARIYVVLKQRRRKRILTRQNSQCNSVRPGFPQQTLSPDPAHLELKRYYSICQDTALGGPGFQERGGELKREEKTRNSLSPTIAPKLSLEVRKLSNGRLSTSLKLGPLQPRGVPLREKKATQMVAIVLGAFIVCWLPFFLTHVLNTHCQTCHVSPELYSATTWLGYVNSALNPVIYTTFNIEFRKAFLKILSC

For `CCc1nc(SCC(=O)Nc2ccc3c(c2)OCCO3)c2oc3ccccc3c2n1`, the EC50 [1] was > 79.4 µM (not active), the EC50 [2] was > 79.4 µM (not active) and the IC50 [3] was 13.9 µM (active). The EC50 [4] was 23.3 µM (not active).

For `COc1ccc(Nc2nc(N)nc(CSC(=S)N3CCN(c4ccccc4)CC3)n2)cc1`, the IC50 [5] was > 100 µM (active).

In the case of `CCCCOC(=O)c1cc(-c2ccc(/C=N/n3cnnc3)o2)ccc1Cl`, the IC50 [6] is reported as > 50 µM (not active).

With `CC1=Nc2cccc3cccc(c23)N1` the IC50 [7] was 3.71 µM (active), the IC50 [8] was > 100 µM (inconclusive) and the IC50 [9] was > 100 µM (active).

In the case of `Oc1ccc(Cl)cc1CNCc1ccc(F)cc1`, the EC50 [10] is reported as 15.5 µM (not active) and the EC50 [11] is reported as 11 µM (not active).

With `CCOc1cccc(/C=N/NC(=O)c2ccc3c(c2)OCCO3)c1O` the IC50 [12] was > 50 µM (active), the CC50 [13] was 3.18 µM (active) and the EC50 [14] was 1.11 µM (active). The AC50 [15] was 3.01 µM (active), the CC50 [16] was 6.58 µM (active) and the EC50 [17] was 1.49 µM (active). The CC50 [18] was 4.3 µM (active), the EC50 [19] was 50.3 µM (active) and the EC50 [20] was > 350 µM (not active). For the same molecule, the IC50 [21] was 12.5 µM (not active) and the EC50 [22] was 2.77 µM (active).

In the case of `O=C(Oc1ccccc1)c1cc2cc([N+](=O)[O-])ccc2s1`, the IC50 [23] is reported as > 17 µM (not active).

In the case of `COc1ccc([N+](=O)[O-])cc1COc1cc(C)cc2oc(=O)cc(-c3ccccc3)c12`, the IC50 [24] is reported as > 69.5 µM (not active).

For `O=C1OCC2OC(O)C(O)C(O)C2OC(=O)c2cc(O)c(O)c(O)c2-c2c(O)c(O)c3oc(=O)c4c(c(O)c(O)c5oc(=O)c2c3c54)-c2c1cc(O)c(O)c2O` (centres undefined), the IC50 [7] was 1.56 µM (active) and the IC50 [25] was < 1 µM (active).

In the case of `CCOC(=O)COc1ccc(S(=O)(=O)NCc2ccncc2)cc1`, the IC50 [26] is reported as > 42 µM (not active).

In the case of `Cc1ccccc1-n1c(SC/C(O)=C(\C#N)c2nc3ccccc3[nH]2)nnc1-c1ccncc1`, the IC50 [27] is reported as > 50 µM (not active) and the IC50 [28] is reported as 0.371 µM (not active).

With `COc1ccc(CN2CCO[C@@H](CCc3ccccc3)C2)cc1` the IC50 [29] was 20 µM (inactive), the IC50 [30] was 20 µM (inactive) and the IC50 [31] was 16.5 µM (active). The IC50 [32] was 20 µM (inactive) and the IC50 [33] was 8.17 µM (active).
